# Columns and labels:
# Assay type in all cases: cell-based, human
# [1] = test system: MF CD34+ cells; experiment: Clonal assays of MF CD34+ cells; JAK2V617F allele status of picked hematopoietic colonies; details: no ladarixin
# Protocol: Individual hematopoietic colonies were randomly picked from clonal assays of CD34^+ cells from 6 MF cases and the JAK2V617F allele status was determined.
# IL-8 alone increased the absolute numbers of JAK2V617F+ colonies, and the addition of Ladarixin reduced the numbers of JAK2V617F positive colonies stimulated by IL-8 (Tables 1-3).
# [2] = test system: MF CD34+, CD41+ and CD33+ cells; experiment: Proliferation and lineage differentiation of MF mononuclear cells cultured with IL-8, flow cytometry; details: 50 ng/ml of IL-8, 3 days of incubation, FIG. 4A
# Protocol: To evaluate the effects of IL-8 on MF CD34^+ cells proliferation and lineage differentiation, MF mononuclear cells (MNC cells) were cultured with StemSpan™ Serum-Free Expansion Medium (SFEM) containing 20 ng/ml of stem cell factor (SCF), thrombopoietin (TPO), FL-3L and IL-3 with or without 50 ng/ml of IL-8. The cells were harvested after 3 days of incubation. The proportion of hematopoietic cells belonging to specific lineages were determined using flow cytometry.
# [3] = test system: normal donor CD34+ cells; experiment: Proliferation and lineage differentiation of normal donor cells cultured with IL-8, flow cytometry; details: incubated with IL-8, FIG. 4A
# [4] = test system: MF CD34+ cells; experiment: Colony forming assay (CFU-GM) of cultured MF CD34+ cells with IL-8
# Excerpt: FIGS. 5A, 5B. 5C, 5D, and 5E illustrate that a CXCR1/CXCR2 inhibitor reverses effects of IL-8 on MF CD34^+ cell colony formation. […] CFU-GM=colony-forming unit-granulocyte-macrophage. FIGS. 5B and 5C illustrate that IL-8 increased CFU-GM colony formation by MF CD34^+ cells in a dose dependent fashion and that the effects of IL-8 were inhibited by treatment with Ladx. FIG. 5B. Normal cells. FIG. 5C. MF cells. […] Con=control. IL-8 concentrations increase from left to right. […] P values were as follows: w/o Ladx: Con vs IL-8—10 ng: 0.159332; Con vs IL-8—20 ng: 0.011976; Con vs IL-8—50 ng: 0.00262; Con vs IL-8—100 ng: 0.00042; w/ 10 μM Ladx: Con vs Ladx: 0.315782; IL-8—10 ng vs plus Ladx: 0.295851; IL-8—20 ng vs plus Ladx: 0.077726; IL-8—50 ng vs plus Ladx: 0.031355; IL-8—100 ng vs plus Ladx: 0.081595.
# [5] = test system: normal CD34+ cells; experiment: Hematopoietic colony formation by normal CD34+ cells with IL-8; details: increasing concentrations of IL-8, FIG. 5B
# [6] = test system: spleen stromal cells; experiment: VEGF mRNA expression by spleen stromal cells after IL-8 silencing; details: addition of IL-8, FIG. 3C
# Excerpt: FIGS. 3A, 3B, and 3C illustrate that reduction of IL-8 blocks VEGF, which is involved in the development of splenic endothelial cells (EC)/MF HSC niches. FIGS. 3A and 3B illustrate that LCN2 increases IL-8 and CXCL1 protein and mRNA levels in spleen stromal cells. Con: left bars. LCN2: right bars. FIG. 3C illustrates that IL-8 regulates VEGF expression. si=silencing. Ab=antibody. Con=control.
# Lipocalin2 (LCN2) is a cytokine produced by MF marrow myeloid cells. Levels of LCN2 are 2-3 fold greater in the circulation of MF patients as compared to PV and ET patients and even higher as compared to healthy controls. […] IL-8 and the related chemokine CXCL1 are pro-angiogenic creating a cascade of cytokines (VEGF) contributing to the development of splenic EC/MF HSC niches. […] The positive impact of IL-8 on VEGF expression was blocked by an IL-8 neutralizing antibody.
substance,measurement,setting,value
IL-8: pro-inflammatory cytokine; CXCR1 and CXCR2 are its receptors,"number of colonies, Heter (JAK2V617F heterozygous)","[1]; MF4 CD34+ cells, IL-8 20 ng",171
same,"number of colonies, Homo (JAK2V617F homozygous)","[1]; MF4 CD34+ cells, IL-8 20 ng",0
same,"number of colonies, Wild (JAK2 wild type)","[1]; MF4 CD34+ cells, IL-8 20 ng",0
same,"number of colonies, Heter (JAK2V617F heterozygous)","[1]; MF4 CD34+ cells, IL-8 50 ng",190
same,"number of colonies, Homo (JAK2V617F homozygous)","[1]; MF4 CD34+ cells, IL-8 50 ng",0
same,"number of colonies, Wild (JAK2 wild type)","[1]; MF4 CD34+ cells, IL-8 50 ng",0
same,"number of colonies, Heter (JAK2V617F heterozygous)","[1]; MF4 CD34+ cells, IL-8 100 ng",174
same,"number of colonies, Homo (JAK2V617F homozygous)","[1]; MF4 CD34+ cells, IL-8 100 ng",12
same,"number of colonies, Wild (JAK2 wild type)","[1]; MF4 CD34+ cells, IL-8 100 ng",12
same,"number of colonies, Heter (JAK2V617F heterozygous)","[1]; MF5 CD34+ cells, IL-8 10 ng",0
same,"number of colonies, Homo (JAK2V617F homozygous)","[1]; MF5 CD34+ cells, IL-8 10 ng",0
same,"number of colonies, Wild (JAK2 wild type)","[1]; MF5 CD34+ cells, IL-8 10 ng",124
same,"number of colonies, Heter (JAK2V617F heterozygous)","[1]; MF5 CD34+ cells, IL-8 20 ng",0
same,"number of colonies, Homo (JAK2V617F homozygous)","[1]; MF5 CD34+ cells, IL-8 20 ng",0
same,"number of colonies, Wild (JAK2 wild type)","[1]; MF5 CD34+ cells, IL-8 20 ng",142
same,"number of colonies, Heter (JAK2V617F heterozygous)","[1]; MF5 CD34+ cells, IL-8 50 ng",0
same,"number of colonies, Homo (JAK2V617F homozygous)","[1]; MF5 CD34+ cells, IL-8 50 ng",0
same,"number of colonies, Wild (JAK2 wild type)","[1]; MF5 CD34+ cells, IL-8 50 ng",115
same,"number of colonies, Heter (JAK2V617F heterozygous)","[1]; MF5 CD34+ cells, IL-8 100 ng",0
same,"number of colonies, Homo (JAK2V617F homozygous)","[1]; MF5 CD34+ cells, IL-8 100 ng",0
same,"number of colonies, Wild (JAK2 wild type)","[1]; MF5 CD34+ cells, IL-8 100 ng",115
same,"number of colonies, Heter (JAK2V617F heterozygous)","[1]; MF6 CD34+ cells, IL-8 10 ng",0
same,"number of colonies, Homo (JAK2V617F homozygous)","[1]; MF6 CD34+ cells, IL-8 10 ng",0
same,"number of colonies, Wild (JAK2 wild type)","[1]; MF6 CD34+ cells, IL-8 10 ng",115
same,"number of colonies, Heter (JAK2V617F heterozygous)","[1]; MF6 CD34+ cells, IL-8 20 ng",0
same,"number of colonies, Homo (JAK2V617F homozygous)","[1]; MF6 CD34+ cells, IL-8 20 ng",0
same,"number of colonies, Wild (JAK2 wild type)","[1]; MF6 CD34+ cells, IL-8 20 ng",131
same,"number of colonies, Heter (JAK2V617F heterozygous)","[1]; MF6 CD34+ cells, IL-8 50 ng",8
same,"number of colonies, Homo (JAK2V617F homozygous)","[1]; MF6 CD34+ cells, IL-8 50 ng",0
same,"number of colonies, Wild (JAK2 wild type)","[1]; MF6 CD34+ cells, IL-8 50 ng",125
same,"number of colonies, Heter (JAK2V617F heterozygous)","[1]; MF6 CD34+ cells, IL-8 100 ng",12
same,"number of colonies, Homo (JAK2V617F homozygous)","[1]; MF6 CD34+ cells, IL-8 100 ng",0
same,"number of colonies, Wild (JAK2 wild type)","[1]; MF6 CD34+ cells, IL-8 100 ng",87
same,"percentage of MF CD34+, CD41+ and CD33+ cells",[2],increased
same,"percentage of normal donor CD34+, CD41+ and CD33+ cell populations",[3],decreased
same,numbers of MF CFU-GM colonies,"[4]; IL-8 at doses of 50 ng/ml and 100 ng/ml, FIG. 5C",increased
same,colony output of cultured MF CD34+ cells compared to WT CD34+ cells,"[4]; cultured with IL-8, FIG. 5A",enhanced colony output
same,CFU-GM colony formation by MF samples with the highest expression of CXCR1/CXCR2,"[4]; treatment with IL-8, FIG. 5D",increased
same,hematopoietic colony formation by normal CD34+ cells,[5],did not affect
same,effect on decrease of VEGF mRNA expression caused by silencing of IL-8,[6],reversed this effect
